From patent US10040781B2, “Tank-binding kinase inhibitor compounds” (Gilead Sciences, Inc., priority 2014, dated 2018)
pIC50: −log10 of the molar value. Where two headings read alike, the source gives them in different places.

Tests used:
TBK1 = TBK1 (Homo sapiens (Human), UniProt Q9UHD2); experiment: TBK1 TR-FRET enzymatic assay;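 further: phosphorylation of a biotinylated Ser/Thr peptide by purified full-length recombinant TBK1, read by TR-FRET after 240 min at 25 °C, IC50 is the geometric mean of at least four runs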
hJAK2 = hJAK2 (Homo sapiens (Human), UniProt O60674); experiment: hJAK2 LANCE TR-FRET enzymatic assay; format: biochemical; conditions: read-out: JAK2 IC50
IKKε = IKKε (Homo sapiens (Human), UniProt Q14164); experiment: IKKε TR-FRET enzymatic assay; format: biochemical; conditions: read-out: IKKe IC50
[1] = TR-FRET, 2×Km ATP, geometric mean of minimum four determinations

Sequence of hJAK2 (O60674 whole entry): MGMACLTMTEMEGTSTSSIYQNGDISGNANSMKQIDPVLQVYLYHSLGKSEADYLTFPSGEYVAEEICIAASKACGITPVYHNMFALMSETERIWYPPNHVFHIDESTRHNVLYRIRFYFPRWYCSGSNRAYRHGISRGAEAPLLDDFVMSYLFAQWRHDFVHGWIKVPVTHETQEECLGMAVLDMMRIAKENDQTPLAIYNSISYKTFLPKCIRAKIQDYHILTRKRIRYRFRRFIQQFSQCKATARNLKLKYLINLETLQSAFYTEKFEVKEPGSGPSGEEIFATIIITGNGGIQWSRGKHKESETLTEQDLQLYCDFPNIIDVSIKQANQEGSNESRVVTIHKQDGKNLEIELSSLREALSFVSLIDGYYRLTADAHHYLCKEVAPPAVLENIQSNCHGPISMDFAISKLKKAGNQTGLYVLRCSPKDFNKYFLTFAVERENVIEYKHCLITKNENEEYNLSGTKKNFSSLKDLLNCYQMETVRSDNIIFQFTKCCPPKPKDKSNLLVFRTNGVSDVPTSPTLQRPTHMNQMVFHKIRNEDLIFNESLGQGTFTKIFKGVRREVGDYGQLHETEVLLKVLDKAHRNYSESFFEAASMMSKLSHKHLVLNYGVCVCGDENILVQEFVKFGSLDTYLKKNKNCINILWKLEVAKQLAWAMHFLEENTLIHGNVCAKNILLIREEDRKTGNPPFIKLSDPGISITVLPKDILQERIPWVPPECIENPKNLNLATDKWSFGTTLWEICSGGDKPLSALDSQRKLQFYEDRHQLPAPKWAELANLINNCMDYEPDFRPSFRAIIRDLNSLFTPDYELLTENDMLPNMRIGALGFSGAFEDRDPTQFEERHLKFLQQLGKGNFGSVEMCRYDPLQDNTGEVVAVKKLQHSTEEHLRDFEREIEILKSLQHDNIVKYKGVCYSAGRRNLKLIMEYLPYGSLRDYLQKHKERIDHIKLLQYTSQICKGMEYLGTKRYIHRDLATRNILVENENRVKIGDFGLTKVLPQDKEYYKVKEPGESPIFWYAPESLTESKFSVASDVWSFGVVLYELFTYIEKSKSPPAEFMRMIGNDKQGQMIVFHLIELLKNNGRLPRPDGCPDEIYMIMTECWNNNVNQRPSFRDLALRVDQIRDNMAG
Sequence of IKKε (Q14164 whole entry): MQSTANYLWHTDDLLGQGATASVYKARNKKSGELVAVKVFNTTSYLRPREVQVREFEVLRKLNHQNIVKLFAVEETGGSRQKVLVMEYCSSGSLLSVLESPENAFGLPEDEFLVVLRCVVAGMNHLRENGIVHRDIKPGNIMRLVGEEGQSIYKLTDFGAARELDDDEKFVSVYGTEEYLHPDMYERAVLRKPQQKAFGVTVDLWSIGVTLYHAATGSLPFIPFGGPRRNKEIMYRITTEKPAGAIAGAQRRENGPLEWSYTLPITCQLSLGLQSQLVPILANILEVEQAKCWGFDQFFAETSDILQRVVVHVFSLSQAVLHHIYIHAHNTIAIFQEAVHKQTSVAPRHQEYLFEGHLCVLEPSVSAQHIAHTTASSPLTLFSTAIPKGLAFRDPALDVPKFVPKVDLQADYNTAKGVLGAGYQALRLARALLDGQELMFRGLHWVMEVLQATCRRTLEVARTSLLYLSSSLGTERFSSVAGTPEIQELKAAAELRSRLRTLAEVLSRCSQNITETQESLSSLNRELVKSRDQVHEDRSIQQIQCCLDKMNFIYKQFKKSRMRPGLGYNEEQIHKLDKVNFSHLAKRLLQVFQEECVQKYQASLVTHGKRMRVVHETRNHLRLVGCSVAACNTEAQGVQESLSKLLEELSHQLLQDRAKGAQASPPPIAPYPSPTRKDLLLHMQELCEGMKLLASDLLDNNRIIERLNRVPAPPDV
Sequence of TBK1 (Q9UHD2 whole entry): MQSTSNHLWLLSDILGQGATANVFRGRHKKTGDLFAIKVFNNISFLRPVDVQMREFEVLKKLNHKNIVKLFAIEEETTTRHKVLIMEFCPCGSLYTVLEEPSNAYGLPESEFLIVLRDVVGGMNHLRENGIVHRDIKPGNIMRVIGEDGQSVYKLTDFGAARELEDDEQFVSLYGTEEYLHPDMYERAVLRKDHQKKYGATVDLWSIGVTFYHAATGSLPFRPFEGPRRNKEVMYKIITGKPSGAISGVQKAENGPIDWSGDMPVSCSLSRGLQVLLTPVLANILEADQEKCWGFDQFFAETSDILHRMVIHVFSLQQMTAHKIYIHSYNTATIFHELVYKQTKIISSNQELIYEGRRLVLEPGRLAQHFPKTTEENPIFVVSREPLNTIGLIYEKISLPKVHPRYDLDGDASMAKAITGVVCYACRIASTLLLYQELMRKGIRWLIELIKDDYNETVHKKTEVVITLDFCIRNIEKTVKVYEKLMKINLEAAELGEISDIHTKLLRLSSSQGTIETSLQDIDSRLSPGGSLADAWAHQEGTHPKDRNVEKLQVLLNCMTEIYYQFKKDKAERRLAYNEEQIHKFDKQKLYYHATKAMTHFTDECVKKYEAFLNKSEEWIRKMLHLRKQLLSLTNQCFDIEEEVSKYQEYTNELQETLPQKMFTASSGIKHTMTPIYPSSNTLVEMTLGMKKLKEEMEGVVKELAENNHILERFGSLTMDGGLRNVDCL

SMILES	pIC50 (TBK1)	pIC50 (hJAK2)	pIC50 (IKKε)	pIC50 (IKKε; [1])
N#Cc1cc(-c2ncnc(Nc3ccc(N4CCN(C5COC5)CC4)cc3)n2)ccc1O[C@@H]1CCCN(C(=O)CO)C1 [Example 125, (R)-2-((1-(2-hydroxyacetyl)piperidin-3-yl)oxy)-5-(4-((4-(4-(oxetan-3-yl)piperazin-1-yl)phenyl)amino)-1,3,5-triazin-2-yl)benzonitrile]	7.51	6.02	7.07	–
CC(=O)N[C@@H](C)C(=O)N1CC[C@H](Oc2ccc(-c3ncnc(Nc4ccc(N5CCN(C6COC6)CC5)cc4)n3)cc2C#N)[C@H](F)C1 [Example 335, N—((S)-1-((3R,4S)-4-(2-cyano-4-(4-((4-(4-(oxetan-3-yl)piperazin-1-yl)phenyl)amino)-1,3,5-triazin-2-yl)phenoxy)-3-fluoropiperidin-1-yl)-1-oxopropan-2-yl)acetamide]	6.29	6.32	6.08	–
N#Cc1cc(-c2ncnc(Nc3ccc(N4CCN(C5COC5)CC4)cc3)n2)ccc1O[C@H]1CCN(C(=O)c2nc(N)n[nH]2)C[C@H]1F [Example 334, 2-(((3R,4S)-1-(3-amino-1H-1,2,4-triazole-5-carbonyl)-3-fluoropiperidin-4-yl)oxy)-5-(4-((4-(4-(oxetan-3-yl)piperazin-1-yl)phenyl)amino)-1,3,5-triazin-2-yl)benzonitrile]	7.80	7.10	8.70	–
N#Cc1cc(-c2ncnc(Nc3ccc(N4CCN(C5COC5)CC4)cc3)n2)ccc1O[C@H]1CCN(C2COC2)C[C@H]1F [Example 111, 2-(((3R,4S)-3-fluoro-1-(oxetan-3-yl)piperidin-4-yl)oxy)-5-(4-((4-(4-(oxetan-3-yl)piperazin-1-yl)phenyl)amino)-1,3,5-triazin-2-yl)benzonitrile]	6.84	6.22	6.48	–
CC(N)C(=O)N1CC[C@H](Oc2ccc(-c3ncnc(Nc4ccc(N5CCN(C6COC6)CC5)cc4)n3)cc2C#N)[C@H](F)C1 (stereo in doubt) [Example 434, 2-(((3R,4S)-1-((R)-2-aminopropanoyl)-3-fluoropiperidin-4-yl)oxy)-5-(4-((4-(4-(oxetan-3-yl)piperazin-1-yl)phenyl)amino)-1,3,5-triazin-2-yl)benzonitrile]	7.70	6.06	–	7.38
C[C@H](O)C(=O)N1CC[C@@H](Oc2ccc(-c3ncnc(Nc4ccc(N5CCN(C6COC6)CC5)cc4)n3)cc2C#N)C(F)(F)C1 (single isomer, unassigned) [Example 156]	7.80	6.71	7.64	–
N#Cc1cc(-c2ncnc(Nc3ccc(N4CCN(C5COC5)CC4)cc3)n2)ccc1OC1CCN(C(=O)CNC=O)CC1 [Example 51, N-(2-(4-(2-cyano-4-(4-((4-(4-(oxetan-3-yl)piperazin-1-yl)phenyl)amino)-1,3,5-triazin-2-yl)phenoxy)piperidin-1-yl)-2-oxoethyl)formamide]	7.59	6.39	7.10	–
N#Cc1cc(-c2ncnc(Nc3ccc(N4CCN(C5COC5)CC4)cc3)n2)ccc1OCCNC(=O)c1cccnc1 [Example 598, N-(2-(2-cyano-4-(4-((4-(4-(oxetan-3-yl)piperazin-1-yl)phenyl)amino)-1,3,5-triazin-2-yl)phenoxy)ethyl)nicotinamide]	6.57	6.28	–	6.14
N#Cc1cc(-c2ncnc(Nc3ccc(N4CCN(C5COC5)CC4)cc3)n2)ccc1O[C@H]1CCCN(C(=O)CO)C1 [Example 127, (S)-2-((1-(2-hydroxyacetyl)piperidin-3-yl)oxy)-5-(4-((4-(4-(oxetan-3-yl)piperazin-1-yl)phenyl)amino)-1,3,5-triazin-2-yl)benzonitrile]	6.74	6.40	6.25	–
N#Cc1cc(-c2ncnc(Nc3ccc(N4CCN(C5COC5)CC4)cc3)n2)ccc1O[C@H]1CCN(C(=O)C2(O)COC2)C[C@H]1F [Example 472, 2-(((3R,4S)-3-fluoro-1-(3-hydroxyoxetane-3-carbonyl)piperidin-4-yl)oxy)-5-(4-((4-(4-(oxetan-3-yl)piperazin-1-yl)phenyl)amino)-1,3,5-triazin-2-yl)benzonitrile]	7.72	6.01	–	7.37
CCC(=O)Nc1ccc(-c2ncnc(Nc3ccc(N4CCN(C5COC5)CC4)cc3)n2)cc1C#N [Example 495, N-(2-cyano-4-(4-((4-(4-(oxetan-3-yl)piperazin-1-yl)phenyl)amino)-1,3,5-triazin-2-yl)phenyl)propionamide]	7.40	6.96	–	6.92
N#Cc1cc(-c2ncnc(Nc3ccc(N4CCN(C5COC5)CC4)cc3)n2)cc(F)c1OC1CCS(=O)(=O)CC1 [Example 271, 2-((1,1-dioxidotetrahydro-2H-thiopyran-4-yl)oxy)-3-fluoro-5-(4-((4-(4-(oxetan-3-yl)piperazin-1-yl)phenyl)amino)-1,3,5-triazin-2-yl)benzonitrile]	7.74	≤ 6.00	6.96	–

Now those with a higher pIC50 (TBK1), led by results:

pIC50 (TBK1)	pIC50 (hJAK2)	pIC50 (IKKε)	pIC50 (IKKε; [1])	SMILES
8.52	6.18	8.15	–	N#Cc1cc(-c2ncnc(Nc3ccc(N4CCN(C5COC5)CC4)cc3)n2)ccc1OC1CCC(F)(F)CC1 [Example 60, 2-((4,4-difluorocyclohexyl)oxy)-5-(4-((4-(4-(oxetan-3-yl)piperazin-1-yl)phenyl)amino)-1,3,5-triazin-2-yl)benzonitrile]
7.82	6.17	7.27	–	C[C@H](CO)C(=O)N1CC[C@H](Oc2ccc(-c3ncnc(Nc4ccc(N5CCN(C6COC6)CC5)cc4)n3)cc2C#N)[C@H](F)C1 [Example 124, 2-(((3R,4S)-3-fluoro-1-((R)-3-hydroxy-2-methylpropanoyl)piperidin-4-yl)oxy)-5-(4-((4-(4-(oxetan-3-yl)piperazin-1-yl)phenyl)amino)-1,3,5-triazin-2-yl)benzonitrile]
8.05	< 6.00	7.70	–	COc1cc(Nc2ncnc(-c3ccc(OC4CCOCC4)c(C#N)c3)n2)ccc1OC(F)F [Example 31, 5-(4-((4-(difluoromethoxy)-3-methoxyphenyl)amino)-1,3,5-triazin-2-yl)-2-((tetrahydro-2H-pyran-4-yl)oxy)benzonitrile]
8.70	7.10	–	9.00	COc1cc(Nc2ncnc(-c3ccc(O[C@H]4CCN(C(=O)[C@H](C)O)C[C@H]4F)c(C#N)c3)n2)ccc1N1CCN(C)C[C@@H]1C [Example 499, 5-(4-((4-((S)-2,4-dimethylpiperazin-1-yl)-3-methoxyphenyl)amino)-1,3,5-triazin-2-yl)-2-(((3R,4S)-3-fluoro-1-((S)-2-hydroxypropanoyl)piperidin-4-yl)oxy)benzonitrile]
8.70	6.38	7.96	–	N#Cc1cc(-c2ncnc(Nc3ccc(C(=O)C(F)(F)F)cc3)n2)ccc1OC1CCOCC1 [Example 68, 2-((tetrahydro-2H-pyran-4-yl)oxy)-5-(4-((4-(2,2,2-trifluoroacetyl)phenyl)amino)-1,3,5-triazin-2-yl)benzonitrile]
8.52	≤ 6.00	–	8.40	C[C@H](O)C(=O)N1CC[C@H](Oc2ccc(-c3ncnc(Nc4ccc(N5CCN(C6COC6)CC5=O)cc4)n3)cc2C#N)[C@H](F)C1 [Example 462, 2-(((3R,4S)-3-fluoro-1-((S)-2-hydroxypropanoyl)piperidin-4-yl)oxy)-5-(4-((4-(4-(oxetan-3-yl)-2-oxopiperazin-1-yl)phenyl)amino)-1,3,5-triazin-2-yl)benzonitrile]
8.15	≤ 6.00	–	7.85	CCOc1ccc(Nc2ncnc(-c3ccc(O[C@H]4CCN(C(=O)[C@@H]5CCC(=O)N5)C[C@H]4F)c(C#N)c3)n2)cn1 [Example 538, 5-(4-((6-ethoxypyridin-3-yl)amino)-1,3,5-triazin-2-yl)-2-(((3R,4S)-3-fluoro-1-((S)-5-oxopyrrolidine-2-carbonyl)piperidin-4-yl)oxy)benzonitrile]
8.22	6.05	8.10	–	CCOC(=O)c1cccc(Nc2ncnc(-c3ccc(O[C@H]4CCN(C(=O)[C@H](C)O)C[C@H]4F)c(C#N)c3)n2)c1 [Example 380, Ethyl 3-((4-(3-cyano-4-(((3R,4S)-3-fluoro-1-((S)-2-hydroxypropanoyl)piperidin-4-yl)oxy)phenyl)-1,3,5-triazin-2-yl)amino)benzoate]
8.40	6.99	8.15	–	N#Cc1cc(-c2ncnc(Nc3ccc(N4CCN(C5COC5)CC4)cc3)n2)ccc1O[C@H]1CCN(C(=O)Cc2cnn[nH]2)C[C@H]1F [Example 319, 2-(((3R,4S)-1-(2-(1H-1,2,3-triazol-5-yl)acetyl)-3-fluoropiperidin-4-yl)oxy)-5-(4-((4-(4-(oxetan-3-yl)piperazin-1-yl)phenyl)amino)-1,3,5-triazin-2-yl)benzonitrile]
8.52	6.84	9.00	–	C[C@H]1CN(C2COC2)CCN1c1ccc(Nc2ncnc(-c3ccc(O[C@H]4CCN(C(=O)c5cnc[nH]5)C[C@H]4F)c(C#N)c3)n2)cc1 [Example 256, 2-(((3R,4S)-3-fluoro-1-(1H-imidazole-5-carbonyl)piperidin-4-yl)oxy)-5-(4-((4-((S)-2-methyl-4-(oxetan-3-yl)piperazin-1-yl)phenyl)amino)-1,3,5-triazin-2-yl)benzonitrile]
8.40	≤ 6.00	–	8.70	N#Cc1cc(-c2ncnc(Nc3ccc(N4CCN(C5COC5)CC4)nc3)n2)ccc1O[C@H]1CCN(C(=O)[C@@H](O)CO)C[C@H]1F [Example 510, 2-(((3R,4S)-1-((S)-2,3-dihydroxypropanoyl)-3-fluoropiperidin-4-yl)oxy)-5-(4-((6-(4-(oxetan-3-yl)piperazin-1-yl)pyridin-3-yl)amino)-1,3,5-triazin-2-yl)benzonitrile]
